Test results reported in patent US12377601B2, “Fast-eluting three-dimensionally molded object, filament for fast-eluting three-dimensionally molded object, and material for fast-eluting three-dimensionally molded object” (ASTELLAS PHARMA INC., priority 2016, dated 2025).
Values after ≈ are worked out from the molar mass of the structure shown. Where two headings read alike, the source gives them in different places.

Assay: Solubility of the active component in Japanese Pharmacopoeia dissolution test fluids
Type: physicochemical
Procedure: As specific materials, N^2-[(2E)-3-(4-chlorophenyl)-2-propenoyl]-N-[2-oxo-2-(4-{[6-(trifluoromethyl)pyrimidine-4-yl]oxy}piperidine-1-yl)ethyl]-3-pyridine-2-yl-L-alaninamide (manufactured by Astellas Pharma Inc., a solubility to a dissolution test 1st fluid of the Japanese Pharmacopoeia: >100 µM, a solubility to a dissolution test 2nd fluid of the Japanese Pharmacopoeia: 23.2 µM, hereinafter abbreviated as a compound A) was selected as an active component, Poly(vinyl alcohol) [MW 6000] (manufactured by Polysciences, Inc., the same hereinafter unless otherwise specified) was selected as a thermoplastic polymer, maltitol (SweetPearl P200, manufactured by Roquette, the same hereinafter unless otherwise specified) was selected as a sugar alcohol, and Triethyl Citrate (manufactured by Tokyo Chemical Industry Co., Ltd., the same hereinafter unless otherwise specified) was selected as a plasticizer component.

- solubility (dissolution test 1st fluid of the Japanese Pharmacopoeia, pH 1.2, simulated gastric fluid, read-out: solubility to a dissolution test 1st fluid of the Japanese Pharmacopoeia): > 100 µM
- solubility (dissolution test 2nd fluid of the Japanese Pharmacopoeia, pH 6.8, aqueous buffer, read-out: solubility to a dissolution test 2nd fluid of the Japanese Pharmacopoeia): 23.2 µM (≈ 14.3 µg/mL)
SMILES: O=C(/C=C/c1ccc(Cl)cc1)N[C@@H](Cc1ccccn1)C(=O)NCC(=O)N1CCC(Oc2cc(C(F)(F)F)ncn2)CC1 [compound A, N^2-[(2E)-3-(4-chlorophenyl)-2-propenoyl]-N-[2-oxo-2-(4-{[6-(trifluoromethyl)pyrimidine-4-yl]oxy}piperidine-1-yl)ethyl]-3-pyridine-2-yl-L-alaninamide]
